The results in this text go back to patent US10959966B2, “Compositions and methods for modulating HEXM1 expression” (CASE WESTERN RESERVE UNIVERSITY, priority 2014, dated 2021).

Common to all, as to type: cell-based
In assay [1] the test system is HEXIM1 expression in breast cancer MDA-MB-231 cells. The assay is described as follows: HEXIM1 expression in MDA-MB-231 cells. On the procedure: FIGS. 5(A-C) illustrate (A) the structure of HMBA analog, 4a1, (B) a graph showing HEXIM1 protein expression of breast cancer MCF7 cells treated with vehicle, HMBA, or 4a1 for 18 h, and (C) Western blot analyses of HEXIM1 targets relative to the loading control (GAPDH) of the treated cells.
(§1) MCF7, MDA-MB-231, and LNCaP cells were obtained from the American Tissue Culture Collection, and were maintained as previously described. Construction of expression vectors for control miRNA or HEXIM1 miRNAs were described previously. MCF7 or LNCaP cells were transfected with expression vectors containing either the HEXIM1 miRNA insert or a control miRNA insert as previously described. Following blasticidin selection, cells expressing the highest level of GFP were flow-sorted and expanded. MDA-MB-231 cells were transfected with control or expression vector for Flag-tagged HEXIM1 as previously described. The tamoxifen resistant cells line (TOTR) was generated by serial passage of parental MCF7 cells in growth media supplemented with 1 uM trans-hydroxytamoxifen.
Cell lysates were analyzed by western blot as previously described. Anti-HEXIM1 was generated in the Montano laboratory. Primary antibodies against p21 (C-19; cat# sc-397), cyclin D1 (HD11; cat# sc-246) and myc (9E10; cat# sc-40) were obtained from Santa Cruz Biotechnology. Anti-GAPDH was obtained from Millipore. […]

In assay [2] the test system is p21 expression in prostate cancer LNCaP cells. The assay is described as follows: p21 expression by western blot, LNCaP cells. The note with it: 5 mM HMBA or 50 μM 4a1, 18 hours. On the procedure:
(§2) FIGS. 7(A-B) illustrate Western blots showing (A) MCF7 (control siRNA or HEXIM1 siRNA) and (B) LNCaP (control shRNA or HEXIM1 shRNA) cells treated with vehicle (DMSO), 5 mM HMBA, or 50 μM 4a1 for 18 hours.
(§3) Cell lysates were analyzed by western blot as previously described. Anti-HEXIM1 was generated in the Montano laboratory. Primary antibodies against p21 (C-19; cat# sc-397), cyclin D1 (HD11; cat# sc-246) and myc (9E10; cat# sc-40) were obtained from Santa Cruz Biotechnology. Anti-GAPDH was obtained from Millipore. Anti-HIF-1α was obtained from Oxy-cell, Bioresearch).
(§4) HMBA was investigated in a Phase II clinical trial due to its potent anti-cancer and cell differentiation activities. Moreover, the roles of HMBA, and potentially 4a1, as differentiating factors are advantageous for their therapeutic use when compared to cytotoxic agents. […] We also examined the ability of 4a1 to induce differentiation and the relative role of HEXIM1.

The subject of assay [3] is p21 expression in breast cancer MCF7 cells. The assay is described as follows: p21 expression by western blot, MCF7 cells. The note with it: 5 mM HMBA or 50 μM 4a1, 18 hours. On the procedure: as §2, §3, §4
(In western blotting, separated proteins are transferred to a membrane and probed.)

Assay [4] has as its system recruitment of CDK9 to HEXIM1 gene in LNCaP cells. The assay is described as follows: ChIP assay, CDK9 recruitment to HEXIM1 gene, LNCaP cells. Particulars: 5 mM HMBA or 50 μM 4a1, 90 minutes. On the procedure: FIGS. 6(A-B) illustrate graphs showing HEXIM1 graphs showing HMBA and 4a1 induced recruitment of CDK9 to HEXIM1 promoter in MCF7 and LNCaP cells treated with 5 mM HMBA or 50 μM 4a1 for 90 minutes.
ChIP assays were carried out as previously described. Anti-CDK9 antibody (D-7; cat# sc-13130) was obtained from Santa Cruz Biotechnology.
The induction of HEXIM1 by HMBA appears to involve the release of free P-TEFb from 7SK snRNP, and recruitment of P-TEFb to HEXIM1 gene. P-TEFb is a heterodimer between the cyclin-dependent kinase 9 (Cdk9) and its regulatory subunit Cyclin T1 (CycT1). We thus determined the regulation of the recruitment of CDK9 to the HEXIM1 coding sequence by HMBA and 4a1.

In assay [5] the test system is HEXIM1 expression in MCF7/TOTR cells. The assay is described as follows: HEXIM1 expression in tamoxifen resistant MCF7/TOTR cells. Particulars: 5 mM HMBA or 50 μM 4a1. The procedure: (§5) FIGS. 9(A-B) illustrate a Western blot and plots showing HEXIM1 expression in MCF7 and MCF7(TOTR) cells in the presence of vehicle (DMSO), 5 mM HMBA or 50 μM 4a1.
as §1, with “The tamoxifen resistant cells line (TOTR) was generated by serial passage of parental MCF7 cells in growth media supplemented with 1 uM trans-hydroxytamoxifen.” left out
Cell lysates were analyzed by western blot as previously described. […]
(§6) We have reported that HEXIM1 is required for the ability of antiestrogens to inhibit the activity of the Estrogen Receptor, that loss of HEXIM1 results in agonistic activity of tamoxifen, and that recurrence after tamoxifen therapy can be correlated with loss of HEXIM1 expression in human breast tissue samples. Thus we determined if HMBA and 4a1 can enhance sensitivity to tamoxifen of a tamoxifen resistant breast cancer line (MCF7/TOTR). […]

Assay [6] deals with tamoxifen resistant breast cancer line (MCF7/TOTR). The assay is described as follows: MTT proliferation assay, sensitivity to trans-hydroxytamoxifen. The note with it: 7 days, 5 mM HMBA or 50 μM 4a1. The procedure: as §5
MCF7, MDA-MB-231, and LNCaP cells were obtained from the American Tissue Culture Collection, and were maintained as previously described. Construction of expression vectors for control miRNA or HEXIM1 miRNAs were described previously. MCF7 or LNCaP cells were transfected with expression vectors containing either the HEXIM1 miRNA insert or a control miRNA insert as previously described. Following blasticidin selection, cells expressing the highest level of GFP were flow-sorted and expanded. […]
MCF7 cells were plated onto 96 well plates and treated with 17β-estradiol±trans-hydroxytamoxifen in the presence of DMSO (vehicle), HMBA or 4a1 for 7 days. Cell proliferation was assessed using the MTT based Cell Growth Determination Kit from Sigma-Aldrich according to the manufacturer's protocol.
as §6
(Tetrazolium assays rely on reduction of a dye to a coloured formazan, in cell work by metabolically active cells.)

As to `COc1ccc(CC(=O)NCCCCCCNC(C)=O)cc1` [Compound 4a1], in assay [1], the “Potency of HEXIM1 induction compared to HMBA” value was “increased potency”. Also, the p21 expression entry in assay [2] is on record as “induction of p21 expression”; in assay [3], “induced p21 expression”. For the same molecule, in assay [4], the “Recruitment of CDK9 to HEXIM1 gene” value was “induce recruitment of CDK9”. In assay [5], the HEXIM1 expression entry is recorded as “induced HEXIM1 expression”. Besides, the “Sensitivity of TOTR cells to trans-hydroxytamoxifen” value in assay [6] is listed as “enhanced the sensitivity”.
